Experimental data published in patent publication US20130190275A1, “COMBINED THERAPIES OF ANTIPSYCHOTIC DRUGS AND TETRACYCLINES IN THE TREATMENT OF PSYCHIATRIC DISORDERS” (MOR RESEARCH APPLICATIONS LTD., priority 2006, published 2013).
Counter-ions that a name gives are not always drawn.

Key:
Type in all cases: in vivo, rat
MK801 treated rats [1] = test: Morris Water Maze (MWM) task, MK801 animal model of schizophrenia; conditions: MK801 alone vs saline group, p<0.001
Procedure: Morris Water Maze (MWM): The MWM consisted of a water pool (diameter=1.8 m; depth=0.6 m) containing water at 26±1° C. A hidden platform was located 1.5 cm below the water surface. Within the testing room, only distal visuo-spatial cues were available to the rats for location of the submerged platform. A video camera was placed above the center of the pool for tracking the rat, and a video tracking system (Noldus Information Technology b.v., Wageninpen, The Netherlands) with online digital output, directly fed data into a computer and analyzed. Data were analyzed by using an Etho-Vision automated tracking system (Noldus Information Technology).
(§1) Fifteen minutes before the behavioral procedures conducted at the fourth day, the subject was injected i.p. with an 0.1 mg/kg dose of MK801 or saline, for a total volume of 1 ml per kg of body weight. Next, the subjects passed the three behavioral procedures, described in the following paragraphs.
The MWM, a hippocampal-dependent visuo-spatial learning task, was used to assess the subjects' spatial learning/memory. The ability of an animal to locate a hidden platform submerged under water by using extra-maze cues from the test environment was examined. The rats were trained in a pool 1.8 m in diameter and 0.6 m high, containing water at 26±1° C. A 10 cm square transparent platform was hidden in a constant position in the pool submerged 1 cm below the water level. Within the testing room only distal visuo-spatial cues were available to the rats for location of the submerged platform.
Rats were given four trials per day, to find the hidden platform (acquisition phase). The escape latency, i.e., the time required by the rat to find and climb onto the platform, was recorded for up to 120 sec. Each rat was allowed to remain on the platform for 30 sec, and was then removed to its home cage.
Morris Water Maze (MWM): Escape latency, the time between placing the rat in the pool until it located the platform, was measured during behavioral testing. The escape latency was analyzed by means of […] repeated measures analysis of variance (ANOVA) with a between-subjects measure of ‘group’ (treatment group) and a within-subjects measure of ‘trail’ (effects amongst groups in the four different trials).
The MWM test was then performed (see FIG. 1 for results). A significant main effect of ‘group’, ‘trail’ and a significant ‘group’×‘trails’ interaction was found in the repeated measured ANOVA for the MWM task [F(5,35)=9.699, p<0.001; F(3,33)=31.551, p<0.001; F(15,91)=1.824, p<0.05; respectively].

MK801 treated rats [2] = test: Habituation of the Acoustic Startle Response (ASR), MK801 animal model
Procedure: (§2) Acoustic Startle Response (ASR) and Pre-Pulse Inhibition (PPI): Both experimental paradigms were performed in a room that was adjacent to the laboratory facilities and the animal stall and that was not used for other experiments. The animals were tested in squad of two with startle chambers counterbalanced across the different experimental groups. Startle response and prepulse inhibition were measured using two ventilated startle chambers (SR-LAB system, San Diego Instruments, San Diego, Calif.). Each chamber consisted of a Plexiglas cylinder resting on a platform inside a sound-attenuated, ventilated chamber. A high-frequency loudspeaker inside the chamber produced both a continuous broadband background noise of 70 dB and the various acoustic stimuli. Movement inside the tube was detected by a piezoelectric accelerometer below the frame. The amplitude of the whole body startle to an acoustic pulse was defined as the average of 100 one-msec accelerometer readings collected from pulse onset. These signals were then digitized and stored by a computer. Sound levels within each test chamber were measured routinely using a sound level meter (Radio Shack) to ensure consistent presentation. The SR-LAB calibration unit was used routinely to ensure consistent stabilimeter sensitivity between test chambers and over time (Swerdlow and Geyer, 1998, Schizophrenia Bulletin, 24(2), 285-301).
as §1
(§3) ASR and PPI were measured using two startle chambers, with each chamber consisting of a Plexiglas cylinder resting on a platform inside a sound-attenuated, ventilated chamber (see also materials section). The animals were tested in pairs with startle chambers counterbalanced across the different experimental groups.
The ASR test measured the ability of the animal to habituate to repetitive loud pulses of noise. […] Movement inside the tube was detected by a piezoelectric accelerometer below the frame. The amplitude of the whole body startle to an acoustic pulse was defined as the average of 100 one-msec accelerometer readings collected from pulse onset. […]
Acoustic Startle Response (ASR): The decrease in ASR in the groups was calculated as the percent of amplitude decrease between the mean of the first five amplitude values and the mean of the last 25 amplitude values.
Percent habituation=100×[(average startle amplitude in Block 1)−(average startle amplitude in Block 5)/(average startle amplitude in Block 1)]. Results were analyzed by two-way ANOVA a between-subject measure of ‘group’ (treatment group).

MK801 treated rats [3] = test: Pre-Pulse Inhibition (PPI) paradigm, MK801 animal model
Procedure: as §2, §1, §3
PPI of the startle response was used as a measure of sensorimotor gating, with the startle chambers used to assess the ability of prepulse stimuli to block the startle response. […]
Pre-Pulse Inhibition (PPI): Startle magnitude is expressed in all the procedures as arbitrary units. Percent PPI (% PPI) was calculated as the mean startle magnitude to stimulus-alone minus the mean startle magnitude to prepulse-stimulus trials, all divided by the mean stimulus-alone trials, and multiplied by 100. The overall mean % PPI was calculated for the four prepulse intensities (72, […], 80, 84 dB). Results were analyzed by two-way ANOVA with a between-subject measure of ‘group’ (difference the treatment groups) and ‘prepulse intensity’ (72, 76, 80, 84 dB).

[4] = drug+MK801 0.1 mg/kg i.p., minocycline 35 mg/kg x 3 days pretreatment, haloperidol 0.4 mg/kg i.p.

| SMILES | escape latency (MK801 treated rats [1]) | percent habituation of the startle response (% habituation) (MK801 treated rats [2]; MK801 alone vs saline treated rats) | percent of PPI (% PPI) (MK801 treated rats [3]; MK801 alone vs saline treatment group) | percent habituation of the startle response (% habituation) (MK801 treated rats [2]; [4]) | percent of PPI (% PPI) (MK801 treated rats [3]; [4]) |
| --- | --- | --- | --- | --- | --- |
| C[C@]12N[C@H](Cc3ccccc31)c1ccccc12 [MK801, Dizocilpine maleate] | longer escape latencies | induced a significant deficit in the habituation of ASR | induced a significant deficit in the PPI |  |  |
| O=C(CCCN1CCC(O)(c2ccc(Cl)cc2)CC1)c1ccc(F)cc1 [haloperidol] |  |  |  | not able to prevent the deficits induced by MK801 | lack of significant effects |
